Test results: the NIST ThermoML archive (doi:10.1021/acs.jced.6b00362)
Numbers after ± are expanded uncertainties.

Key:
[1] = refractive index (other wavelength) (dimensionless); xn = mol fraction of the nth substance listed; conditions: Liquid, ellipsometry
[2] = refractive index (other wavelength) (dimensionless); conditions: 101 kPa, Liquid, Wavelength=632.8 nm, ellipsometry

[Cl-].[Cl-].[Cl-].[Gd+3] [gadolinium(III) chloride] + [Cl-].[Cs+]
refractive index, [1], 100 kPa, Wavelength=632.8 nm
Conditions | 923 K | 973 K | 1023 K | 1073 K | 1103 K | 1123 K | 1173 K
x1 = 0.15 | – | – | – | 1.46 ± 0.002 | 1.453 ± 0.002 | 1.448 ± 0.002 | 1.437 ± 0.001
x1 = 0.5 | 1.568 ± 0.001 | 1.56 ± 0.001 | 1.552 ± 0.001 | 1.543 ± 0.001 | 1.538 ± 0.001 | 1.535 ± 0.001 | 1.526 ± 0.001
x1 = 0.75 | 1.629 ± 0.001 | 1.621 ± 0.001 | 1.613 ± 0.001 | 1.606 ± 0.001 | 1.603 ± 0.001 | 1.601 ± 0.001 | 1.594 ± 0.001
x1 = 1 | 1.7 ± 0.002 | 1.685 ± 0.001 | 1.68 ± 0.001 | 1.675 ± 0.001 | – | 1.664 ± 0.001 | 1.662 ± 0.001

[Cl-].[K+] [potassium chloride] + [Cl][Sm]([Cl])[Cl]
[1], 100 kPa, Wavelength=632.8 nm, x2 = 0
Conditions | refractive index
1073 K | 1.393 ± 0.001
1093 K | 1.39 ± 0.001
1103 K | 1.388 ± 0.001
1113 K | 1.386 ± 0.001
1123 K | 1.385 ± 0.001
1133 K | 1.383 ± 0.001
1153 K | 1.38 ± 0.001
1173 K | 1.377 ± 0.001
1193 K | 1.374 ± 0.001

[Cl-].[Cs+] [cesium chloride] + [Cl-].[Cl-].[Cl-].[Gd+3]
[1], 100 kPa, Wavelength=632.8 nm, x2 = 0
Conditions | refractive index
1023 K | 1.439 ± 0.001
1033 K | 1.438 ± 0.001
1053 K | 1.434 ± 0.001
1073 K | 1.43 ± 0.001
1093 K | 1.426 ± 0.001
1113 K | 1.423 ± 0.001
1133 K | 1.419 ± 0.001
1153 K | 1.415 ± 0.001
1173 K | 1.411 ± 0.001

[Cl-].[K+] [potassium chloride] + [Cl-].[Na+]
[1], 101 kPa, Wavelength=632.8 nm, x2 = 0.5
Conditions | refractive index
953 K | 1.42 ± 0.001
973 K | 1.417 ± 0.001
993 K | 1.414 ± 0.001
1013 K | 1.411 ± 0.001
1033 K | 1.408 ± 0.001
1053 K | 1.405 ± 0.001
1073 K | 1.402 ± 0.001
1093 K | 1.399 ± 0.001
1103 K | 1.397 ± 0.001
1113 K | 1.396 ± 0.001
1123 K | 1.394 ± 0.001
1133 K | 1.393 ± 0.001
1153 K | 1.39 ± 0.001
1173 K | 1.387 ± 0.001

[Cl][Sm]([Cl])[Cl] [samarium chloride] + [Cl-].[Cs+]
refractive index, [1], 100 kPa, Wavelength=6328 nm
Conditions | 973 K | 1003 K | 1023 K | 1073 K | 1103 K | 1123 K | 1153 K | 1173 K | 1203 K
x1 = 0.15 | – | – | 1.468 ± 0.001 | 1.464 ± 0.001 | 1.458 ± 0.002 | 1.448 ± 0.002 | – | 1.44 ± 0.01 | –
x1 = 0.5 | 1.564 ± 0.001 | 1.558 ± 0.001 | 1.557 ± 0.001 | 1.55 ± 0.01 | 1.543 ± 0.001 | 1.54 ± 0.01 | – | 1.527 ± 0.001 | 1.523 ± 0.001
x1 = 0.75 | 1.675 ± 0.003 | 1.668 ± 0.002 | 1.662 ± 0.001 | 1.654 ± 0.001 | 1.651 ± 0.002 | 1.642 ± 0.001 | – | 1.64 ± 0.01 | 1.635 ± 0.001
x1 = 1 | 1.712 ± 0.001 | 1.705 ± 0.001 | 1.701 ± 0.001 | 1.691 ± 0.001 | 1.684 ± 0.001 | 1.68 ± 0.01 | 1.674 ± 0.001 | 1.672 ± 0.001 | –

[Cl-].[K+] [potassium chloride]
[2]
Conditions | refractive index
1073 K | 1.393 ± 0.001
1093 K | 1.39 ± 0.001
1103 K | 1.388 ± 0.001
1113 K | 1.386 ± 0.001
1123 K | 1.385 ± 0.001
1133 K | 1.383 ± 0.001
1153 K | 1.38 ± 0.001
1173 K | 1.377 ± 0.001
1193 K | 1.374 ± 0.001

[Cl-].[Cs+] [cesium chloride] + [Cl][Ce]([Cl])[Cl]
[1], 100 kPa, Wavelength=632.8 nm, x2 = 0
Conditions | refractive index
1023 K | 1.439 ± 0.001
1033 K | 1.438 ± 0.001
1053 K | 1.434 ± 0.001
1073 K | 1.43 ± 0.001
1093 K | 1.426 ± 0.001
1113 K | 1.423 ± 0.001
1133 K | 1.419 ± 0.001
1153 K | 1.415 ± 0.001
1173 K | 1.411 ± 0.001
